# ChEMBL document CHEMBL1155053, “Discovery of new Gram-negative antivirulence drugs: structure and properties of novel E. coli WaaC inhibitors” (Bioorg Med Chem Lett, 2008)
# pIC50: −log10 of the molar value.
# Experiment: Inhibition of Escherichia coli heptosyltransferase Waac
row,SMILES,pIC50
1,CC(=O)c1cccc(-c2ccc(/C=C3\C(=O)N(c4cccc(C(=O)O)c4)N=C3C)o2)c1 (mixture of isomers),4.82
2,CC1=NN(c2ccc(C(=O)O)cc2)C(=O)/C1=C\c1ccc(-c2cccc(C(N)=O)c2)o1 (mixture of isomers),4.74
3,COC(=O)c1cccc(-c2ccc(/C=C3\C(=O)N(c4cccc(C(=O)O)c4)N=C3C)o2)c1 (mixture of isomers),4.31
4,CC1=NN(c2cccc(C(=O)O)c2)C(=O)/C1=C\c1ccc(-c2ccc(S(N)(=O)=O)cc2)o1 (mixture of isomers),< 4.00
5,CC1=NN(c2cccc(C(=O)O)c2)C(=O)/C1=C\c1ccc(-c2cccc(C(=O)O)c2)o1 (mixture of isomers),5.70
6,CC1=NN(c2cccc(C(=O)O)c2)C(=O)/C1=C\c1ccc(-c2ccc(C(=O)O)c(C)c2)o1,4.51
7,CC1=NN(c2ccccc2)C(=O)/C1=C\c1ccc(-c2ccc(Cl)c(C(=O)O)c2)o1 (mixture of isomers),< 4.00
8,CC1=NN(c2cccc(C)c2)C(=O)/C1=C\c1ccc(-c2cccc(C(=O)O)c2)o1 (mixture of isomers),< 4.00
9,CC1=NN(c2cccc(C(=O)O)c2)C(=O)/C1=C\c1ccc(-c2ccc(Cl)c(C(=O)O)c2)o1 (mixture of isomers),6.00
10,CC1=NN(c2ccc(C(=O)O)cc2)C(=O)/C1=C\c1ccc(-c2ccccc2)o1,4.26
11,CC1=NN(c2ccc(C(=O)O)cc2)C(=O)/C1=C\c1ccc(-c2ccc(Cl)c(C(=O)O)c2)o1,5.51
12,COC(=O)c1cccc(N2N=C(C)/C(=C/c3ccc(-c4cccc(C(=O)O)c4)o3)C2=O)c1 (mixture of isomers),< 4.00
13,CC1=NN(c2cccc(C(=O)O)c2)C(=O)/C1=C\c1ccc(-c2ccc(C(=O)O)cc2)o1,5.52
14,CC1=NN(c2ccc(C(=O)O)cc2)C(=O)/C1=C\c1ccc(-c2ccc(C(=O)O)cc2)o1 (mixture of isomers),4.29
